Assay results as given in PubChem BioAssay AID1845196 (Molecular Pharmacology Branch, DTP, NCI, 2023).

Test system: 292921-168-R tumor spheroid viability
Test: Anticancer human tumor 292921-168-R patient-derived pancreatic carcinoma cell line growth inhibition
Settings: spheroids with HUVEC and MSC; for IC50: curve of first compound; for viability, T/C: stronger effect = lower value
Outline: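 Complex spheroids of malignant cells with endothelial cells and mesenchymal stem cells; agents alone or combined, from near clinical Cmax (or 10 microM if unknown) down in half-log steps, 0.25% DMSO final.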
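Further: spheroids exposed to compounds for 7 days.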

Which results are given for `CNCc1ccc(-c2cc(-c3nc(-c4ccc(S(=O)(=O)C(C)C)cc4)cnc3N)on2)cc1` + Cn1nnc2c(C(N)=O)ncn2c1=O?
IC50 (second compound 1 µM): 205 nM; IC50 (second compound 3.16 µM): 212 nM; IC50 (second compound 10 µM): 214 nM; IC50 (second compound 31.6 µM): 178 nM; IC50 (second compound 100 µM): 136 nM; viability, T/C (second compound 1 µM, first compound 0.00949 µM): 90%; viability, T/C (second compound 1 µM, first compound 0.03 µM): 85.7%; viability, T/C (second compound 1 µM, first compound 0.0949 µM): 70.7%; viability, T/C (second compound 1 µM, first compound 0.3 µM): 37.7%; viability, T/C (second compound 1 µM, first compound 0.949 µM): 23.1%; viability, T/C (second compound 1 µM, first compound 3 µM): 9.35%; viability, T/C (second compound 3.16 µM, first compound 0.00949 µM): 97.1%; viability, T/C (second compound 3.16 µM, first compound 0.03 µM): 92.8%; viability, T/C (second compound 3.16 µM, first compound 0.0949 µM): 67.9%; viability, T/C (second compound 3.16 µM, first compound 0.3 µM): 41.9%; viability, T/C (second compound 3.16 µM, first compound 0.949 µM): 22%; viability, T/C (second compound 3.16 µM, first compound 3 µM): 12%; viability, T/C (second compound 10 µM, first compound 0.00949 µM): 96.4%; viability, T/C (second compound 10 µM, first compound 0.03 µM): 88.6%; viability, T/C (second compound 10 µM, first compound 0.0949 µM): 71.7%; viability, T/C (second compound 10 µM, first compound 0.3 µM): 40.2%; viability, T/C (second compound 10 µM, first compound 0.949 µM): 20.4%; viability, T/C (second compound 10 µM, first compound 3 µM): 9.2%; viability, T/C (second compound 31.6 µM, first compound 0.00949 µM): 91.6%; viability, T/C (second compound 31.6 µM, first compound 0.03 µM): 79.2%; viability, T/C (second compound 31.6 µM, first compound 0.0949 µM): 72.2%; viability, T/C (second compound 31.6 µM, first compound 0.3 µM): 31.6%; viability, T/C (second compound 31.6 µM, first compound 0.949 µM): 17.2%; viability, T/C (second compound 31.6 µM, first compound 3 µM): 8.61%; viability, T/C (second compound 100 µM, first compound 0.00949 µM): 81.9%; viability, T/C (second compound 100 µM, first compound 0.03 µM): 82.3%; viability, T/C (second compound 100 µM, first compound 0.0949 µM): 61.5%; viability, T/C (second compound 100 µM, first compound 0.3 µM): 23.9%; viability, T/C (second compound 100 µM, first compound 0.949 µM): 13.1%; viability, T/C (second compound 100 µM, first compound 3 µM): 7.83%

With `O=C(c1cc(Cc2n[nH]c(=O)c3ccccc23)ccc1F)N1CCN(C(=O)C2CC2)CC1` + COc1cc2c(cc1O)CCNC21CSC2c3c(OC(C)=O)c(C)c4c(c3C(COC1=O)N1C(O)C3Cc5cc(C)c(OC)c(O)c5C(C21)N3C)OCO4 as the compound, how does the IC50 (second compound 30 pM) read?
The IC50 was 8260 nM.

And the IC50 (second compound 94.9 pM)?
Its IC50 is 7070 nM.

And the IC50 (second compound 0.0003 µM)?
The IC50 was < 94.9 nM.

And the IC50 (second compound 0.000949 µM)?
The IC50 was < 94.9 nM.

What about the IC50 (second compound 0.003 µM) of the same compound?
The IC50 was < 94.9 nM.

And the viability, T/C (second compound 30 pM, first compound 0.0949 µM)?
Its viability, T/C is 99.4%.

And the viability, T/C (second compound 30 pM, first compound 0.3 µM)?
The viability, T/C was 103%.

And the viability, T/C (second compound 30 pM, first compound 0.949 µM)?
The viability, T/C was 96.6%.

What about the viability, T/C (second compound 30 pM, first compound 3 µM) of the same compound?
Its viability, T/C is 91.9%.

What about the viability, T/C (second compound 30 pM, first compound 9.49 µM) of the same compound?
The viability, T/C was 44.2%.

What about the viability, T/C (second compound 30 pM, first compound 30 µM) of the same compound?
The viability, T/C was 21.8%.

And the viability, T/C (second compound 94.9 pM, first compound 0.0949 µM)?
Its viability, T/C is 94.8%.

And the viability, T/C (second compound 94.9 pM, first compound 0.3 µM)?
The viability, T/C was 94%.

What about the viability, T/C (second compound 94.9 pM, first compound 0.949 µM) of the same compound?
The viability, T/C was 88%.

And the viability, T/C (second compound 94.9 pM, first compound 3 µM)?
Its viability, T/C is 82.2%.

And the viability, T/C (second compound 94.9 pM, first compound 9.49 µM)?
The viability, T/C was 38.9%.

And the viability, T/C (second compound 94.9 pM, first compound 30 µM)?
The viability, T/C was 22.4%.

And the viability, T/C (second compound 0.0003 µM, first compound 0.0949 µM)?
The viability, T/C was 48%.

And the viability, T/C (second compound 0.0003 µM, first compound 0.3 µM)?
The viability, T/C was 41.3%.

What about the viability, T/C (second compound 0.0003 µM, first compound 0.949 µM) of the same compound?
Its viability, T/C is 38.6%.

And the viability, T/C (second compound 0.0003 µM, first compound 3 µM)?
Its viability, T/C is 34.3%.

And the viability, T/C (second compound 0.0003 µM, first compound 9.49 µM)?
The viability, T/C was 10.7%.

And the viability, T/C (second compound 0.0003 µM, first compound 30 µM)?
Its viability, T/C is 13.2%.

What about the viability, T/C (second compound 0.000949 µM, first compound 0.0949 µM) of the same compound?
Its viability, T/C is 3.75%.

What about the viability, T/C (second compound 0.000949 µM, first compound 0.3 µM) of the same compound?
The viability, T/C was 4.31%.

And the viability, T/C (second compound 0.000949 µM, first compound 0.949 µM)?
Its viability, T/C is 3.14%.

And the viability, T/C (second compound 0.000949 µM, first compound 3 µM)?
Its viability, T/C is 3.26%.

And the viability, T/C (second compound 0.000949 µM, first compound 9.49 µM)?
The viability, T/C was 1.19%.

What about the viability, T/C (second compound 0.000949 µM, first compound 30 µM) of the same compound?
Its viability, T/C is 0.39%.

And the viability, T/C (second compound 0.003 µM, first compound 0.0949 µM)?
Its viability, T/C is 0.15%.

What about the viability, T/C (second compound 0.003 µM, first compound 0.3 µM) of the same compound?
The viability, T/C was 0.13%.

What about the viability, T/C (second compound 0.003 µM, first compound 0.949 µM) of the same compound?
Its viability, T/C is 0.13%.

What about the viability, T/C (second compound 0.003 µM, first compound 3 µM) of the same compound?
The viability, T/C was 0.23%.

And the viability, T/C (second compound 0.003 µM, first compound 9.49 µM)?
The viability, T/C was 0.41%.

What about the viability, T/C (second compound 0.003 µM, first compound 30 µM) of the same compound?
Its viability, T/C is 1.31%.
